Data taken from PubChem BioAssay AID2060900 (Molecular Pharmacology Branch, DTP, NCI, 2025).

System: 521955-158-R2-J5-PDC complex spheroids, viability
Assay: Anticancer human tumor 521955-158-R2-J5-PDC patient-derived pancreatic carcinoma cell line growth inhibition [RAS]
Conditions: for IC50: curve of first compound; for viability, T/C: stronger effect = lower value; active = viability on the fitted dose curve at most 10% of control; inactive = the rest
How it was run: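 Multi-cell-type spheroids: tumor cells plus HUVEC endothelial cells and mesenchymal stem cells. RAS-pathway inhibitors were combined with targeted agents, each dosed in half-log steps down from clinical Cmax, or from 10 microM when Cmax was unknown.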

[1] = second compound 0.000949 µM, first compound 0.0316 µM
[2] = second compound 0.000949 µM, first compound 0.1 µM
[3] = second compound 0.003 µM, first compound 0.0316 µM
[4] = second compound 0.003 µM, first compound 0.1 µM
[5] = second compound 0.00949 µM, first compound 0.0316 µM
[6] = second compound 0.00949 µM, first compound 0.1 µM
[7] = second compound 0.03 µM, first compound 0.0316 µM
[8] = second compound 0.03 µM, first compound 0.1 µM
[9] = second compound 0.0949 µM, first compound 0.0316 µM
[10] = second compound 0.0949 µM, first compound 0.1 µM
[11] = second compound 0.3 µM, first compound 0.0316 µM
[12] = second compound 0.3 µM, first compound 0.1 µM
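Note: compound exposure lasted seven days before the viability read.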
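Throughout, for viability, T/C: spheroids also contain HUVEC endothelial cells and mesenchymal stem cells as stroma.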

CC(C)n1nc(-c2ccc3oc(N)nc3c2)c2c(N)ncnc21 + CCn1c(-c2cc(N3CCN(C)CC3)cnc2C(C)OC)c2c3cc(ccc31)-c1csc(n1)CC(NC(=O)C1CC1C)C(=O)N1CCCC(N1)C(=O)OCC(C)(C)C2
< 0.316 nM: IC50 (second compound 0.000949 µM) | IC50 (second compound 0.003 µM) | IC50 (second compound 0.00949 µM) | IC50 (second compound 0.03 µM) | IC50 (second compound 0.0949 µM) | IC50 (second compound 0.3 µM)
inactive: viability, T/C (second compound 0.000949 µM, first compound 0.000316 µM) 38.5% | viability, T/C (second compound 0.000949 µM, first compound 0.001 µM) 40.2% | viability, T/C (second compound 0.000949 µM, first compound 0.00316 µM) 37.6% | viability, T/C (second compound 0.000949 µM, first compound 0.01 µM) 39.8% | viability, T/C [1] 22.7% | viability, T/C [2] 21.2% | viability, T/C (second compound 0.003 µM, first compound 0.000316 µM) 34.6% | viability, T/C (second compound 0.003 µM, first compound 0.001 µM) 38.8% | viability, T/C (second compound 0.003 µM, first compound 0.00316 µM) 28.7% | viability, T/C (second compound 0.003 µM, first compound 0.01 µM) 22.6% | viability, T/C [3] 11.2% | viability, T/C (second compound 0.00949 µM, first compound 0.000316 µM) 31.3% | viability, T/C (second compound 0.00949 µM, first compound 0.001 µM) 30.2% | viability, T/C (second compound 0.00949 µM, first compound 0.00316 µM) 34.9% | viability, T/C (second compound 0.00949 µM, first compound 0.01 µM) 21.4% | viability, T/C [5] 14.2% | viability, T/C (second compound 0.03 µM, first compound 0.000316 µM) 25.3% | viability, T/C (second compound 0.03 µM, first compound 0.001 µM) 22% | viability, T/C (second compound 0.03 µM, first compound 0.00316 µM) 20.4% | viability, T/C (second compound 0.03 µM, first compound 0.01 µM) 17.9% | viability, T/C [7] 11.7% | viability, T/C (second compound 0.0949 µM, first compound 0.000316 µM) 11.8% | viability, T/C (second compound 0.0949 µM, first compound 0.001 µM) 11% | viability, T/C (second compound 0.0949 µM, first compound 0.00316 µM) 15.8% | viability, T/C (second compound 0.0949 µM, first compound 0.01 µM) 12.2% | viability, T/C (second compound 0.3 µM, first compound 0.000316 µM) 9.8%
active: viability, T/C [4] 7.9% | viability, T/C [6] 6.83% | viability, T/C [8] 6.04% | viability, T/C [9] 10% | viability, T/C [10] 3.64% | viability, T/C (second compound 0.3 µM, first compound 0.001 µM) 10.4% | viability, T/C (second compound 0.3 µM, first compound 0.00316 µM) 7.93% | viability, T/C (second compound 0.3 µM, first compound 0.01 µM) 7.87% | viability, T/C [11] 6.76% | viability, T/C [12] 3.75%

C[C@@H](NC(=O)c1ncnc(N)c1Cl)c1ncc(C(=O)Nc2cc(C(F)(F)F)c(Cl)cn2)s1 + CCn1c(-c2cc(N3CCN(C)CC3)cnc2C(C)OC)c2c3cc(ccc31)-c1csc(n1)CC(NC(=O)C1CC1C)C(=O)N1CCCC(N1)C(=O)OCC(C)(C)C2
inactive: viability, T/C [1] 49.2% | viability, T/C [2] 50.3% | viability, T/C (second compound 0.000949 µM, first compound 0.316 µM) 50.4% | viability, T/C (second compound 0.000949 µM, first compound 1 µM) 48.9% | viability, T/C (second compound 0.000949 µM, first compound 3.16 µM) 51.3% | viability, T/C (second compound 0.000949 µM, first compound 10 µM) 49% | viability, T/C [3] 39.9% | viability, T/C [4] 39.5% | viability, T/C (second compound 0.003 µM, first compound 0.316 µM) 45.2% | viability, T/C (second compound 0.003 µM, first compound 1 µM) 38.9% | viability, T/C (second compound 0.003 µM, first compound 3.16 µM) 47.9% | viability, T/C (second compound 0.003 µM, first compound 10 µM) 40.7% | viability, T/C [5] 39.9% | viability, T/C [6] 34.2% | viability, T/C (second compound 0.00949 µM, first compound 0.316 µM) 40.8% | viability, T/C (second compound 0.00949 µM, first compound 1 µM) 37% | viability, T/C (second compound 0.00949 µM, first compound 3.16 µM) 36.4% | viability, T/C (second compound 0.00949 µM, first compound 10 µM) 38.7% | viability, T/C [7] 26.9% | viability, T/C [8] 29.7% | viability, T/C (second compound 0.03 µM, first compound 0.316 µM) 31% | viability, T/C (second compound 0.03 µM, first compound 1 µM) 22.4% | viability, T/C (second compound 0.03 µM, first compound 3.16 µM) 29.2% | viability, T/C (second compound 0.03 µM, first compound 10 µM) 21.6% | viability, T/C [9] 11.8% | viability, T/C [10] 12.6% | viability, T/C (second compound 0.0949 µM, first compound 0.316 µM) 18.7% | viability, T/C (second compound 0.0949 µM, first compound 1 µM) 16.8% | viability, T/C (second compound 0.0949 µM, first compound 3.16 µM) 17.8% | viability, T/C (second compound 0.0949 µM, first compound 10 µM) 17.8% | viability, T/C [11] 11.7% | viability, T/C [12] 13.2% | viability, T/C (second compound 0.3 µM, first compound 0.316 µM) 13.5% | viability, T/C (second compound 0.3 µM, first compound 1 µM) 12.4% | viability, T/C (second compound 0.3 µM, first compound 3.16 µM) 15.2% | viability, T/C (second compound 0.3 µM, first compound 10 µM) 12.3%
< 31.6 nM: IC50 (second compound 0.000949 µM) | IC50 (second compound 0.003 µM) | IC50 (second compound 0.00949 µM) | IC50 (second compound 0.03 µM) | IC50 (second compound 0.0949 µM) | IC50 (second compound 0.3 µM)
